SMILES strings stand for the structures.

From patent US20090291973A1, “Novel Quinazoline Derivatives and Their Medical Use” (NeuroSearch A/S, priority 2005, published 2009) come the findings set out here.

The target in one data set is T1, human Kv72+3 channels (Homo sapiens, UniProt O43525+O43526).
T1 construct: expressed in transfected cells
The data set can be described thus: patch-clamp, HEK293 cell lines stably expressing the human Kv72+3 channels. The class given is cell-based. The note with it: 3 μM, HEK293 cells stably expressing human Kv72+3 channels. Background: The patch-clamp technique gives a direct electrical read-out from membranes.

`CC(C)c1nc2ccccc2c(=O)n1NC(=O)C(C)c1ccccc1` (centres unmarked) [Compound B1, N-(2-Isopropyl-4-oxo-4H-quinazolin-3-yl)-2-phenyl-propionamide] showed a melting point of 48 to 55 °C.

On to `CC(C)c1nc2ccccc2c(=O)n1NC(=O)C(C)c1cccc(F)c1` (centres unmarked) [Compound B16, 2-(3-Fluoro-phenyl)-N-(2-isopropyl-4-oxo-4H-quinazolin-3-yl)-propionamide], for which the “activation compared to control” value on human Kv72+3 channels worked out at 60%.

`CC(C)c1nc2ccccc2c(=O)n1NC(=O)C(c1ccccc1)C(C)C` (centres unmarked) [Compound B2, N-(2-Isopropyl-4-oxo-4H-quinazolin-3-yl)-3-methyl-2-phenyl-butyramide] gave a melting point of 188 to 193 °C.

In the case of `COc1ccc(C(C)C(=O)Nn2c(C(C)C)nc3cc(C(F)(F)F)ccc3c2=O)cc1` (centres unmarked) [Compound B20, N-(2-Isopropyl-4-oxo-7-trifluoromethyl-4H-quinazolin-3-yl)-2-(4-methoxy-phenyl)-propionamide], the “activation compared to control” value at human Kv72+3 channels is listed as 87%.

In the case of `CCc1nc2cc(F)ccc2c(=O)n1NC(=O)C(C)c1ccccc1` (centres unmarked) [Compound A1, N-(2-Ethyl-7-fluoro-4-oxo-4H-quinazolin-3-yl)-2-phenyl-propionamide], the melting point fell in the range of 57 to 63 °C.

One may read the melting point as the temperature, or range, at which the solid turns liquid.
